Laboratory results as given in PubChem BioAssay (NCI).
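Growth conditions: 96-well plates. Treatment: test compound, 48 hours, 5 concentrations. Analysis: linear interpolation between bracketing concentrations; unreached endpoints set to highest concentration. At the TGI there is no net growth.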

Tests used:
Assay in all cases: DTP human tumour cell line panel, 48 h
786-0 renal = test system: 786-0 renal
A498 renal = test system: A498 renal
A549 NSCLC = test system: A549 NSCLC
ACHN renal = test system: ACHN renal
CAKI-1 renal = test system: CAKI-1 renal
CCRF-CEM leukemia = test system: CCRF-CEM leukemia
COLO 205 colon = test system: COLO 205 colon
DLD-1 colon = test system: DLD-1 colon
DMS 114 small cell lung = test system: DMS 114 small cell lung
DMS 273 small cell lung = test system: DMS 273 small cell lung
EKVX NSCLC = test system: EKVX NSCLC
HCC-2998 colon = test system: HCC-2998 colon
HCT-116 colon = test system: HCT-116 colon
HCT-15 colon = test system: HCT-15 colon
HL-60(TB) leukemia = test system: HL-60(TB) leukemia
HOP-18 NSCLC = test system: HOP-18 NSCLC
HOP-62 NSCLC = test system: HOP-62 NSCLC
HT29 colon = test system: HT29 colon
IGROV1 ovarian = test system: IGROV1 ovarian
K-562 leukemia = test system: K-562 leukemia
KM12 colon = test system: KM12 colon
KM20L2 colon = test system: KM20L2 colon
LOX IMVI melanoma = test system: LOX IMVI melanoma
LXFL 529 NSCLC = test system: LXFL 529 NSCLC
M14 melanoma = test system: M14 melanoma
M19-MEL melanoma = test system: M19-MEL melanoma
MALME-3M melanoma = test system: MALME-3M melanoma
MOLT-4 leukemia = test system: MOLT-4 leukemia
NCI-H226 lung = test system: NCI-H226 lung
NCI-H23 lung = test system: NCI-H23 lung
NCI-H460 lung = test system: NCI-H460 lung
NCI-H522 lung = test system: NCI-H522 lung
OVCAR-3 ovarian = test system: OVCAR-3 ovarian
OVCAR-4 ovarian = test system: OVCAR-4 ovarian
OVCAR-5 ovarian = test system: OVCAR-5 ovarian
OVCAR-8 ovarian = test system: OVCAR-8 ovarian
RXF 393 renal = test system: RXF 393 renal
RXF-631 renal = test system: RXF-631 renal
SF-268 CNS = test system: SF-268 CNS
SF-295 CNS = test system: SF-295 CNS
SF-539 CNS = test system: SF-539 CNS
SK-MEL-2 melanoma = test system: SK-MEL-2 melanoma
SK-MEL-28 melanoma = test system: SK-MEL-28 melanoma
SK-MEL-5 melanoma = test system: SK-MEL-5 melanoma
SK-OV-3 ovarian = test system: SK-OV-3 ovarian
SN12C renal = test system: SN12C renal
SNB-19 CNS = test system: SNB-19 CNS
SNB-75 CNS = test system: SNB-75 CNS
SNB-78 CNS = test system: SNB-78 CNS
SR leukemia = test system: SR leukemia
SW-620 colon = test system: SW-620 colon
TK-10 renal = test system: TK-10 renal
U251 CNS = test system: U251 CNS
UACC-257 melanoma = test system: UACC-257 melanoma
UACC-62 melanoma = test system: UACC-62 melanoma
UO-31 renal = test system: UO-31 renal
XF 498 CNS = test system: XF 498 CNS

**Q.** What does the source list for CCSC1(SCC)CCN(C=NC(C)(C)C)C1?
**A.** TGI (786-0 renal): > 100 µM; TGI (A498 renal): > 100 µM; TGI (A549 NSCLC): > 100 µM; TGI (ACHN renal): > 100 µM; TGI (CAKI-1 renal): > 100 µM; TGI (CCRF-CEM leukemia): > 100 µM; TGI (COLO 205 colon): > 100 µM; TGI (DLD-1 colon): > 100 µM; TGI (DMS 114 small cell lung): > 100 µM; TGI (DMS 273 small cell lung): > 100 µM; TGI (EKVX NSCLC): > 100 µM; TGI (HCC-2998 colon): > 100 µM; TGI (HCT-116 colon): > 100 µM; TGI (HCT-15 colon): > 100 µM; TGI (HL-60(TB) leukemia): > 100 µM; TGI (HOP-18 NSCLC): > 100 µM; TGI (HOP-62 NSCLC): > 100 µM; TGI (HT29 colon): > 100 µM; TGI (IGROV1 ovarian): > 100 µM; TGI (K-562 leukemia): > 100 µM; TGI (KM12 colon): > 100 µM; TGI (KM20L2 colon): > 100 µM; TGI (LOX IMVI melanoma): > 100 µM; TGI (LXFL 529 NSCLC): > 100 µM; TGI (M14 melanoma): > 100 µM; TGI (M19-MEL melanoma): > 100 µM; TGI (MALME-3M melanoma): > 100 µM; TGI (MOLT-4 leukemia): > 100 µM; TGI (NCI-H226 lung): > 100 µM; TGI (NCI-H23 lung): > 100 µM; TGI (NCI-H460 lung): > 100 µM; TGI (NCI-H522 lung): > 100 µM; TGI (OVCAR-3 ovarian): > 100 µM; TGI (OVCAR-4 ovarian): > 100 µM; TGI (OVCAR-5 ovarian): > 100 µM; TGI (OVCAR-8 ovarian): > 100 µM; TGI (RXF 393 renal): > 100 µM; TGI (RXF-631 renal): > 100 µM; TGI (SF-268 CNS): > 100 µM; TGI (SF-295 CNS): > 100 µM; TGI (SF-539 CNS): > 100 µM; TGI (SK-MEL-2 melanoma): > 100 µM; TGI (SK-MEL-28 melanoma): > 100 µM; TGI (SK-MEL-5 melanoma): > 100 µM; TGI (SK-OV-3 ovarian): > 100 µM; TGI (SN12C renal): > 100 µM; TGI (SNB-19 CNS): > 100 µM; TGI (SNB-75 CNS): > 100 µM; TGI (SNB-78 CNS): > 100 µM; TGI (SR leukemia): > 100 µM; TGI (SW-620 colon): 53.2 µM; TGI (TK-10 renal): > 100 µM; TGI (U251 CNS): > 100 µM; TGI (UACC-257 melanoma): > 100 µM; TGI (UACC-62 melanoma): > 100 µM; TGI (UO-31 renal): > 100 µM; TGI (XF 498 CNS): > 100 µM
